Source: patent US6083969A, “1,3- and 2,3-diarylcycloalkano and cycloalkeno pyrazoles as selective inhibitors of cyclooxygenase-2 and antiinflammatory agents” (Ortho-McNeil Pharaceutical, Inc., priority 1999, dated 2000)

Legend:
[1] = target: T1, human prostaglandin H2 synthase type II (COX-2) (Homo sapiens, UniProt P35354); experiment: Human prostaglandin H2 synthase type II (COX-2) whole cell assay (ECV-304 cells, PGE2 by radioimmunoassay); type: cell-based; design: endogenous in cells; host or cells: ECV-304; conditions: for IC50: read-out: P2: COX 2 Whole Cell IC50; for inhibition at 10 µM / inhibition at 3 µM: read-out: P1: COX 2 Whole Cell % Inhibition; for inhibition at 3 µM: @3 μM (superscript a)
T1 sequence (P35354 18-604): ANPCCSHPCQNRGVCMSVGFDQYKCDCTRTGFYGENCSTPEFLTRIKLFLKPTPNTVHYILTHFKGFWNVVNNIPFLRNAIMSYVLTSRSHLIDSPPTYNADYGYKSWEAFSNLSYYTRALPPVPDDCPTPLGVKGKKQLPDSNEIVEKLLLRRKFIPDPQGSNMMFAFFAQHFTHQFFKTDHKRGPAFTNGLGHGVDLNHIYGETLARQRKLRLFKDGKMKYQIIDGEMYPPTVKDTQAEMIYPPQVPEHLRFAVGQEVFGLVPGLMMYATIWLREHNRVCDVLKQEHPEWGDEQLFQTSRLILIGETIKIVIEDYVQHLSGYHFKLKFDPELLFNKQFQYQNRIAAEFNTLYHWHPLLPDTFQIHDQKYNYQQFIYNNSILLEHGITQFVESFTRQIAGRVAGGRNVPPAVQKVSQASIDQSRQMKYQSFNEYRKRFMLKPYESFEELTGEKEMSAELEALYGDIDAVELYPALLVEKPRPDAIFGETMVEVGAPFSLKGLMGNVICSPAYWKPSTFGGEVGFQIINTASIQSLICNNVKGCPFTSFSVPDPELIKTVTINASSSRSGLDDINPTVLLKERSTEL
Description: HUMAN PROSTAGLANDIN H2 SYNTHASE TYPE II (COX-2) WHOLE CELL ASSAY (MULTIPLE CONCENTRATIONS)
Procedures 1 and 2 were used to determine the ability of the compounds to inhibit human prostaglandin H2 synthase type II (COX-2) in a whole cell assay at multiple concentrations as follows:
Approximately 28 h later, […] PMA and […] ionomycin (both final concentrations) are added to each well and incubated for an additional 16 h. Vehicle or test compounds in the amount of […] are incubated with the cells for five minutes prior to initiation of COX-2 enzyme activity by the addition of 30 μM arachidonic acid. Ten minutes later, an aliquot of the supernatant is withdrawn and the amount of PGE2 present quantitated by radioimmunoassay. Activity, reported as percent inhibition of PGE2 produced, is calculated as follows: [formula]

[2] = target: T1, human prostaglandin H2 synthase type II (COX-2); experiment: Human prostaglandin H2 synthase type II (hCOX-2) homogenate assay (transfected COS-7 cells, PGE2 formation); type: biochemical; design: expressed in transfected cells; host or cells: COS-7 (African Green Monkey Kidney); conditions: COS-7 homogenate; read-out: P4: COX 2 Homogenized Cell IC50
Description: HUMAN PROSTAGLANDIN H2 SYNTHASE TYPE II (hCOX-2) HOMOGENATE ASSAY (SINGLE CONCENTRATION)
Procedures 3 and 4 were used to assess COX-2 activity in a homogenized cell assay as follows:
(§1) COS-7 (African Green Monkey Kidney) cells are maintained in a suitable medium, and are trypsinized and plated at a density of 1×10^6 cells/well of a 6 well plate prior to assay. Approximately 24 hours later, cells are transiently transfected with a plasmid containing the human COX-2 gene using the lipofectamine method. Two days later, the cell-free homogenate is prepared by subjecting the cells to a polytron followed by centrifugation at 9,000×g. COX activity, initiated by the addition of […] arachidonic acid to the 9,000×g supernatant, is monitored in the presence of vehicle or drug. Product (PGE2) formation is quantitated by radioimmunoassay. Activity, reported as percent inhibition of PGE2 produced, is calculated as follows: [formula]

COX-1 = target: T2, COX-1 (Homo sapiens, UniProt P23219); experiment: Human platelet thromboxane B2 production (via COX-1); type: cell-based; conditions: human platelets, TXB2 production; read-out: P5: COX 1 Human Platelet IC50
T2 construct: Remove the platelet-rich plasma (PRP) and dilute the PRP 1:20 with 0.9% NaCl; endogenous in cells; host or cells: human platelets (platelet-rich plasma of one volunteer)
Description: HUMAN […] THROMBOXANE B2 PRODUCTION (via COX-1)
Procedure 5 was used to determine thromboxane B2 (TXB2) production (via COX-1) in human platelets as follows:
Draw blood from one volunteer into heparinized tubes then spin at RT for 15 to 20 minutes at 1,000 RPM. Remove the platelet-rich plasma (PRP) and dilute the PRP 1:20 with 0.9% NaCl containing 14.4U heparin/mL. Add 180 μL of the diluted PRP to each well of a 96-well plate and incubate at 37° C. for 5 minutes. Then add 20 μL vehicle (HBSS with 1% DMSO) or drug and incubate for 15 minutes at 37° C. Add 10 μl calcium ionophore and incubate 15 minutes at 37° C. Stop the reaction on slush ice for 5 minutes and assay supernatants immediately for TXB2 production via RIA or EIA.
Prepare all drugs at 10 mM in DMSO by diluting the drug in HBSS at a 1.100 ratio with 1% DMSO to 100 μM. Add 20 μl to PRP (1:10 ratio) to obtain 10 μM final concentration. The calcium ionophore is prepared by using 7 mg/mL free acid calcium ionophore in DMSO, which is warmed until the ionophore goes into solution. Just prior to use, dilute the solution 1:25 with HBSS.

[3] = target: T3, human prostaglandin H2 synthase type I (COX-1) (Homo sapiens, UniProt P23219); experiment: Human prostaglandin H2 synthase type I (COX-1) homogenate assay (transfected COS-7 cells, PGE2 formation); type: biochemical; conditions: @10 μM; COS-7 homogenate; read-out: P6: COX 1 Homogenized Cell % Inhibition
T3 construct: expressed in transfected cells; host or cells: COS-7 (African Green Monkey Kidney)
Description: HUMAN PROSTAGLANDIN H2 SYNTHASE--TYPE I (COX-1) HOMOGENATE ASSAY (SINGLE CONCENTRATION)
Procedures 6 and 7 were used to assess COX-1 activity in a homogenized cell assay as follows:
as §1, with “COX-1” for “COX-2”

T2 sequence (P23219 24-599): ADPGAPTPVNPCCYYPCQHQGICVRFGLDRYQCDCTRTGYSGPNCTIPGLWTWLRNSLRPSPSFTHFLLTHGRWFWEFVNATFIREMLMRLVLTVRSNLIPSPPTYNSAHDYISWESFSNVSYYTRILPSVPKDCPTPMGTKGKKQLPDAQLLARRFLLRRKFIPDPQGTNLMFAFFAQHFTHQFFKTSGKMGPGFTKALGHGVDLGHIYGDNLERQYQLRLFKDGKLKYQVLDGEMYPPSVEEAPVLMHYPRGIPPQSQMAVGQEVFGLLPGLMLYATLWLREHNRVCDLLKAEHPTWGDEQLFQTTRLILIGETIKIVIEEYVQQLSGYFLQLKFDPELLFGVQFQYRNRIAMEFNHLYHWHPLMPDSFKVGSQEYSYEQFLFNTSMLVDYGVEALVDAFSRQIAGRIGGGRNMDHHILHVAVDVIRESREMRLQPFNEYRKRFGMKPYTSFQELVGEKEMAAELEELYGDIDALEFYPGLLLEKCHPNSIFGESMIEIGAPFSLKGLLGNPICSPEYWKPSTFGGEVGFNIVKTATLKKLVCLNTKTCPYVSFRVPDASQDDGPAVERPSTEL
T3 sequence (P23219 24-599): as above

Row | IC50 [1] [µM] | IC50 (COX-1) [µM] | SMILES | also measured
1 | 10 | – | CS(=O)(=O)c1ccc(-n2nc3c(c2-c2ccc(F)cc2)CCCCC3)cc1 [Example 13-1h] | –
2 | > 10 | – | CS(=O)(=O)c1ccc(-n2nc3c(c2-c2ccc(F)cc2)CC2(CC3)OCCO2)cc1 [Example 30b] | IC50 [2]: 21.7 µM
3 | 4.75 | – | CS(=O)(=O)c1ccc(-n2nc3c(c2-c2ccc(F)cc2)CCC=C3)cc1 [Example 5b] | –
4 | 9.41 | > 10 | CS(=O)(=O)c1ccc(-n2nc3c(c2-c2ccc(Cl)cc2)CCCCC3)cc1 [Example 13-1d] | IC50 [2]: 1.5 µM
5 | > 10 | > 10 | Fc1ccc(-n2nc(-c3ccc(Cl)cc3)c3c2CCCCC3)cc1 [Example 13-1b, 3-(4-Chlorophenyl)-1-(4-fluorophenyl)-cycloheptano-[1,2-d]-pyrazole] | inhibition at 10 µM [1]: 59%
6 | 2.33 | > 10 | CS(=O)(=O)c1ccc(-n2nc3c(c2-c2ccc(Cl)cc2)CCC=C3)cc1 [Example 4b] | –
7 | – | – | CS(=O)(=O)c1ccc(-n2nc(-c3ccc(F)cc3)c3c2C=CCC3)cc1 [Example 32h] | inhibition at 3 µM [1]: 13%
8 | 0.14 | 1 | Clc1ccc(-c2nn(-c3ccccc3)c3c2CCCCC3)cc1 [Example 12, 3-(4-Chlorophenyl)-1-phenyl-cycloheptano-[1,2-d]-pyrazole] | inhibition at 10 µM [3]: 93%
9 | 3.64 | – | COc1ccc(-n2nc3c(c2-c2ccc(F)cc2)CCCCC3)cc1 [Example 13-1g] | IC50 [2]: 8.1 µM
10 | 0.82 | > 10 | CS(=O)(=O)c1ccc(-n2nc3c(c2-c2ccc(Cl)cc2)CCCC3)cc1 [Example 30d] | –
11 | 6.2 | 0.64 | Fc1ccc(-n2nc(-c3ccc(Cl)cc3)c3c2-c2c([nH]c4ccc(F)cc24)CC3)cc1 [Example 32f] | –
12 | 0.57 | > 10 | Clc1ccc(-c2c3c(nn2-c2ccccc2)CCCC3)cc1 [Example 6-1a, 3-(4-Chlorophenyl)-4,5,6,7-tetrahydro-2-phenyl-2H-indazole] | –
13 | – | – | Clc1ccc(-c2nn(-c3ccc(Cl)cc3)c3c2CCC3)cc1 [Example 2, 1,3-Di-(4-Chlorophenyl)-cyclopenta-[1,2-d]-pyrazole] | inhibition at 10 µM [1]: 0%
14 | 9.58 | – | CS(=O)(=O)c1ccc(-n2nc3c(c2-c2ccc(Cl)cc2)CCC2OC32)cc1 (stereo not shown) [Example 48d] | –
15 | > 10 | – | COc1ccc(-n2nc3c(c2-c2ccc(F)cc2)CC2(CC3)OCCO2)cc1 [Example 30c] | IC50 [2]: 20.3 µM
16 | > 10 | > 10 | CS(=O)(=O)c1ccc(-n2nc(-c3ccc(Cl)cc3)c3c2C=CCC3)cc1 [Example 4a, 3-(4-Chlorophenyl)-4,5-dihydro-1-(4-methylsulfonylphenyl)-1H-indazole] | inhibition at 10 µM [3]: 32%; inhibition at 10 µM [1]: 0%
17 | 10 | > 10 | CS(=O)(=O)c1ccc(-n2nc3c(c2-c2ccc(Cl)cc2)CCC(O)C3)cc1 (stereo not shown) [Example 49d] | –

Row | IC50 [1] [µM] | IC50 (COX-1) [µM] | SMILES | also measured
18 | 1.44 | > 10 | CS(=O)(=O)c1ccc(-n2nc3c(c2-c2ccc(Cl)cc2)CCC(=O)C3)cc1 [Example 52b] | –
19 | 19.5 | > 10 | COc1ccc(-n2nc3c(c2-c2ccc(Cl)cc2)CCCCC3)cc1 [Example 13-1c] | –
20 | 0.32 | > 10 | CS(=O)(=O)c1ccc(-c2c3ccccc3nn2-c2ccc(F)cc2)cc1 [Example 32e] | –
21 | 1.22 | 10 | Cc1ccc(-n2nc3c(c2-c2ccc(Cl)cc2)CCCCC3)cc1 [Example 13-1e] | –
22 | 0.17 | 0.12 | c1ccc(-c2nn(-c3ccccc3)c3c2CCCCC3)cc1 [Example 7, 1,3-Diphenyl-4,5,6,7,8,-[5H]cycloheptano-[1,2-d]-pyrazole] | –
23 | > 10 | > 10 | CS(=O)(=O)c1ccc(-n2nc(-c3ccc(C(F)(F)F)cc3)c3c2C=CCC3)cc1 [Example 32g] | –
24 | 2.59 | 10 | Clc1ccc(-c2nn(-c3ccccc3)c3c2CCC3)cc1 [Example 3-1] | –
25 | 0.57 | 0.49 | c1ccc(-c2nn(-c3ccccc3)c3c2CCCC3)cc1 [Example 6, 1,3-Diphenyl-cyclohexa-[1,2-d]-pyrazole] | –
26 | 0.97 | 16 | CS(=O)(=O)c1ccc(-n2nc3ccccc3c2-c2ccc(Cl)cc2)cc1 [Example 32d] | –
27 | 10 | – | Clc1ccc(-c2nn(-c3ccc(Cl)cc3)c3c2CCCCC3)cc1 [Example 13, 3-(4-Chlorophenyl)-1-(4-chlorophenyl)-cycloheptano-[1,2-d]-pyrazole] | inhibition at 10 µM [1]: 3%
28 | 6.28 | > 10 | CS(=O)(=O)c1ccc(-n2nc3c(c2-c2ccc(F)cc2)CCC2OC32)cc1 (stereo not shown) [Example 48e] | –
29 | – | – | CS(=O)(=O)c1ccc(-n2nc(-c3ccc(Cl)cc3)c3c2CCCC3)cc1 [Example 30e] | inhibition at 3 µM [1]: 21%
30 | 1.38 | 5.5 | Clc1ccc(-c2c3c(nn2-c2ccccc2)CCCCC3)cc1 [Example 13-1f] | –
31 | 1.24 | 10 | COc1ccc(-c2nn(-c3ccccc3)c3c2CCCCC3)cc1 [Example 13-2b, 3-(4-Methoxy)-1-phenyl-cycloheptano-[1,2-d]-pyrazole] | –
32 | 0.62 | 10 | Clc1ccc(-c2nn(-c3ccccc3)c3c2CCCC3)cc1 [Example 6-1b, 3-(4-Chlorophenyl)-4,5,6,7-tetrahydro-1-phenyl-1H-indazole] | –
33 | – | – | CS(=O)(=O)c1ccc(-n2nc(-c3ccc(F)cc3)c3ccccc32)cc1 [Example 32i] | inhibition at 3 µM [1]: 12%
